Test results as given in publication PMC8079784, “The Mechanism of Action of Antigen Processing Independent T Cell Epitopes Designed for Immunotherapy of Autoimmune Diseases” (Frontiers in Immunology, 2021).

Columns and labels:
[1] = tested on: autoimmune hemolytic anemia; settings: cited from earlier work
Source text: Previously we have shown that the impact of CD4 T cell epitope administration in the absence of adjuvant depends on peptide solubility. […] Importantly, however, addition of charged residues at the N- and C-termini of the band 3 epitope rendered it both soluble and immuno-modulatory. Unlike the insoluble 861-874 that both primed band 3 reactive inflammatory T cells and promoted generation of pathogenic ...

splenic CD11c+ DC = assay: In vivo APC targeting after SC peptide: ex vivo presentation to naive Tg4 CD4+ T cells; design: species or system mouse (B10.PL); settings: 80µg SC, proliferation of Tg4 CD4+ T cells in vitro
Source text: CD11c^+ cells were isolated from whole splenocytes in MACS buffer using the CD11c microbead positive selection kit (Miltenyi Biotec, Surrey, UK) as per the manufacturer’s instructions. Single cell suspensions were used for magnetic selection using the EasySep Mouse B Cell Isolation kit or EasySep Mouse Monocyte Enrichment kit (both Stemcell Technologies, Grenoble, France) as per the manufacturer’s instructions. In the B10.PL APC targeting experiments, single cell suspensions (without digestion) of Tg4 splenocytes were counted and T cells isolated using Magnisort® Mouse CD4 T cell isolation kit (affymetrix, eBioscience, Hatfield, UK) as per the manufacturer’s instructions. Cells were either enriched by magnetic sorting prior to fluorescence-activated cell sorting (FACS) or sorted from splenocytes. […] Peptide bound to APC was detected in vitro by activation of naïve Tg4 cells, as evidenced through ^3H.thymidine incorporation. […] Peptide bound to APC was detected in vitro by activation of CD4^+ T cells from the lymph nodes and spleen of HLA-DR3 transgenic mice immunized with the 5D peptide in CFA. T cell activation was detected by interferon gamma secretion over 3 days.
Proliferation was assessed by tritiated thymidine (^3H-TdR) incorporation with either whole splenocytes or isolated APC populations and antigen-specific Tg4 responder CD4^+ T cells. […]

CD4 cells = assay: Intracellular cytokine staining of spleen cells for IL-10 after dose escalation; assay type: in vivo, mouse (Tg4); settings: Tg4 mice, after the final 80 µg dose of dose escalation
Experimental: (§1) Tg4 mice were primed with a single dose (80μg) of 4Y in PBS by SC injection. Tolerance induction involved escalating dose immunotherapy (EDI) whereby each Tg4 or tiger-Tg4 mouse was treated with 0.08, 0.8, 8, 80, 80 and 80μg 4Y in PBS by SC injection at the right-side flank every 3rd or 4th day ([20]).
Intracellular cytokine staining of splenocytes was performed after a 3-h stimulation with phorbol 12-myristate 13-acetate (5ng/ml) and ionomycin (500ng/ml) (both Sigma-Aldrich) with GolgiStop (BD Biosciences). Cells were stained with Vβ8-FITC (clone KJ16-133, diluted 1:100) or with fixable viability dye eFluor780 (1:1,000) before surface staining with CD4-Alexa700 (GK1.5, 1:100) and fixation using IC fixation buffer (all from eBioscience). Antibodies for intracellular cytokine staining were diluted in permeabilization buffer; IL-10-allophycocyanin (APC) (JES5-16E3, 1:200), IFN-γ-PerCP-Cy5.5 (XMG1.2, 1:200) (both from eBioscience). Data were collected using an LSR II flow cytometer (BD Biosciences) and analyzed using FlowJo software (Treestar).

Tg4 splenocytes = assay: In vitro antigenicity: proliferation of Tg4 splenocytes (3H-TdR); assay type: cell-based, mouse; settings: 2x10^5 per well, 3H-TdR at d3; limiting dose 1 ng/ml
Experimental: Proliferation was assessed by tritiated thymidine (^3H-TdR) incorporation with either whole splenocytes or isolated APC populations and antigen-specific Tg4 responder CD4^+ T cells. Tg4 whole splenocytes were cultured in 96-well round bottom plates, 2x10^5 whole splenocytes per well, with addition of the indicated concentration of the relevant peptide. Whole splenocytes from B10.PL mice that had received CD4^+ CD45.1^+ T cells followed by CD11c^+ cells were cultured in 48–well plates at 1.25x10^6 per well. Isolated populations were plated out at 5x10^4/well CD4^+ T cells, with either equal numbers of CD11c^+ DC, B cells or monocytes enriched as specified. Cells were cultured at 37°C, 5% CO2. At 24 and 72 hours, supernatant was taken for cytokine analysis and medium was supplemented with 0.5µCi ^3H-TdR (GE Healthcare Lifesciences, UK) for 16 hours. Plates were frozen at –20°C in preparation for later harvesting with a Tomtec harvester onto filter papers (Cox Scientific, Kettering, UK). Levels of incorporated radioactivity were assessed from the dried filter papers, sealed in sample bags (Wallac, Milton Keynes, UK) with 3ml scintillation fluid, ^3H-TdR incorporation was measured on a 1450 MicroBeta liquid scintillation counter (Wallac).

serum IL-2 = assay: Serum IL-2 after a single SC dose of peptide; assay type: in vivo, mouse (Tg4); settings: Tg4 mice, single SC dose 80µg
Experimental: as §1
(§2) MFBI Th1/Th2 Flow Cytomix Multiplex kits (eBioscience) were used to measure the concentration of cytokines in the serum 2 h after s.c. treatment with soluble peptide.
(§3) Figure 3 Impact of soluble versus insoluble peptide treatment on T cell function in Tg4 mice. A single SC dose of soluble 4Y (80µg) induces rapid and high levels of IL-2 into the serum of Tg4 mice (A) when compared to insoluble 4Y-3LF (B). For the data shown in (C), Tg4 mice received a SC injection of 80µg MBP Ac1-9[4Y] or 4Y-3LF. Blood was removed from the tail vein at the specified times following injection, baseline was taken prior to peptide injection and the cellular fraction was stained for flow cytometry. Inguinal lymph node (ILN), brachial lymph node (BLN) and spleen were collected at 48–hours. Percentages of CD4^+ cells were gated on live singlets. […] (*p ≤ 0.05, **p ≤ 0.01, ***p ≤ 0.001, ****p ≤ 0.0001). […] Tg4 mice were given SC injections of PBS containing the indicated doses of 4Y peptide given every 3rd or 4th day (2 doses per week).

serum IL-10 = assay: Serum IL-10 during dose escalation of SC peptide; assay type: in vivo, mouse (Tg4); settings: Tg4 mice, SC dose escalation 0.08 to 80µg every 3rd or 4th day
Experimental: as §1, §2, §3

[2] = tested on: lymph node cells or splenocytes; assay: T cell anergy: ex vivo proliferation of lymph node cells or splenocytes after dose escalation; assay type: in vivo, mouse (Tg4); settings: Tg4 mice, six escalating SC doses, cells three days after sixth dose, 3H-TdR at 72 hours
Experimental: as §1
Proliferation was assessed by tritiated thymidine (^3H-TdR) incorporation with either whole splenocytes or isolated APC populations and antigen-specific Tg4 responder CD4^+ T cells. Tg4 whole splenocytes were cultured in 96-well round bottom plates, 2x10^5 whole splenocytes per well, with addition of the indicated concentration of the relevant peptide. Whole splenocytes from B10.PL mice that had received CD4^+ CD45.1^+ T cells followed by CD11c^+ cells were cultured in 48–well plates at 1.25x10^6 per well. […] Levels of incorporated radioactivity were assessed from the dried filter papers, sealed in sample bags (Wallac, Milton Keynes, UK) with 3ml scintillation fluid, ^3H-TdR incorporation was measured on a 1450 MicroBeta liquid scintillation counter (Wallac).
Figure 2 Peptide solubility predicts accessibility to steady state DC and determines tolerance induction: The 4Y peptide was rendered increasingly insoluble by addition of LF motifs. […] Proliferation was measured by tritiated thymidine (^3H-TdR) incorporation at 72 hours. […]

| Substance | Effect of intranasal administration in NZB mice ([1]; intranasal, no adjuvant) | Solubility of band 3 peptide ([1]; mouse, in vivo) | Presentation by splenic CD11c+ DC collected 2h after SC administration (splenic CD11c+ DC) | CD4 cells producing IL-10 (intracellular cytokine staining of spleen cells) (CD4 cells) | Antigenicity: proliferation of Tg4 splenocytes in vitro (Tg4 splenocytes) | Time of peak serum IL-2 after SC injection (serum IL-2) [h] | IL-10 detectable in serum (serum IL-10) | Ex vivo proliferation of lymph node cells or splenocytes stimulated with the Ac1-9 peptide [2] |
| --- | --- | --- | --- | --- | --- | --- | --- | --- |
| 861-874: insoluble peptide epitope from the red blood cell band 3 protein (FVLILTVPLRRVLL; UniProt P02730 861-874, looked up, fragment) [Peptide 861-874] | promote autoimmunity | insoluble | – | – | – | – | – | – |
| Ac-ASQYRPSLFLFLF-NH2 [Peptide 4Y-3LF] | – | – | barely detectable | close to background levels | significantly weaker | 8 | No IL-10 was detectable | partially suppressed |
